Among the test systems are OVCAR-4; OVCAR-3; HCT-15; U-251; HOP-62; NCI-H522; ACHN; DU-145; NCI-H23; NCI-H226; HCT-116; K562; RXF 393; BT-549; PC-3; SK-MEL-5; CCRF-CEM; NCI/ADR-RES; UO-31; A549.
What all share (assay): inhibition of tumour cell growth, NCI panel, 48 h

Results on 7 molecules are retold here after ChEMBL document CHEMBL1201862, “PubChem BioAssay data set” (2004).

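Compound exposure: 48 hours, 5 concentrations, 96-well plates. GI50: concentration for 50% inhibition of growth.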 Calls of active or inactive are those of the source. Cut-off read from the data, not from the text of the source: active = GI50 up to about 1.1 µM and inactive = higher.

With `O=C1NC(=O)C(Cc2ccccc2)(c2cccnc2)N1` (stereo not given), the GI50 was > 100 µM (inactive) in the assay on OVCAR-4; > 100 µM (inactive) in the assay with OVCAR-3; greater than 100 µM in the assay on HCT-15; > 100 µM (inactive) in the assay with U-251; > 100 µM (inactive) in the assay on HOP-62; > 100 µM (inactive) with NCI-H522. Moreover, the GI50 in the assay on ACHN, in the assay with DU-145, in the assay on NCI-H23, in the assay with NCI-H226, in the assay with HCT-116 and in the assay on K562 was > 100 µM (inactive) throughout. For the same molecule, the GI50 in the assay with RXF 393, with BT-549, in the assay on PC-3, in the assay on SK-MEL-5, in the assay with CCRF-CEM and in the assay on NCI/ADR-RES was > 100 µM (inactive) in each case. The GI50 in the assay on UO-31 and in the assay on A549 was > 100 µM (inactive) throughout.
Consider `Cc1cc(N)ccc1C=O`, for which the GI50 in the assay on OVCAR-4 is > 100 µM (inactive); with OVCAR-3, > 100 µM (inactive); in the assay on HCT-15, greater than 100 µM; in the assay on U-251, > 100 µM (inactive); in the assay with HOP-62, > 100 µM (inactive); in the assay with NCI-H522, > 100 µM (inactive). Further, the GI50 in the assay on ACHN, with DU-145, in the assay with NCI-H23, with NCI-H226, with HCT-116 and in the assay with K562 was > 100 µM (inactive) each time. Also, the GI50 in the assay on RXF 393, in the assay with BT-549, with PC-3, in the assay with SK-MEL-5, in the assay with CCRF-CEM and in the assay on NCI/ADR-RES was > 100 µM (inactive) each time. Also, the GI50 with UO-31 and with A549 was > 100 µM (inactive) throughout.
On to `CC[C@]12C=CCN3CC[C@@]4(c5cc(N=O)c(OC)cc5N(C)[C@H]4[C@@](O)(C(=O)NC(Cc4c[nH]c5ccccc45)C(=O)OC)[C@@H]1O)[C@@H]32` (stereo not given in full), for which the GI50 was 15.6 µM (inactive) in the assay on OVCAR-4; 14.4 µM (inactive) in the assay on OVCAR-3; 20.3 µM in the assay on HCT-15; 7.33 µM (inactive) in the assay with U-251; 18.2 µM (inactive) with HOP-62; 2.64 µM (inactive) in the assay on NCI-H522. Further, the GI50 was 18.9 µM (inactive) in the assay on ACHN; 17.2 µM (inactive) in the assay on DU-145; 17.7 µM (inactive) in the assay with NCI-H23; 24.5 µM (inactive) with NCI-H226; 12.9 µM (inactive) with HCT-116; 3.92 µM (inactive) in the assay with K562. Also, the GI50 was 12.6 µM (inactive) with RXF 393; 14.9 µM (inactive) in the assay with BT-549; 11.5 µM (inactive) in the assay with PC-3; 14.8 µM (inactive) with SK-MEL-5; 3.27 µM (inactive) with CCRF-CEM; > 100 µM (inactive) in the assay with NCI/ADR-RES. The values for the GI50 in the assay on UO-31 and in the assay on A549 were 23.1 µM (inactive) and 29.4 µM (inactive), respectively.
In the case of `C[N+](C)(C)C(C1=CCCC1=O)c1ccccc1` (stereo not given), the GI50 with OVCAR-4 was 80.7 µM (inactive); in the assay with OVCAR-3 it was 47.1 µM (inactive); in the assay with HCT-15, 20.2 µM; with U-251, 20.6 µM (inactive); in the assay with HOP-62, 24.8 µM (inactive); with NCI-H522 it was 18.7 µM (inactive). Also, the GI50 in the assay with ACHN is 25.4 µM (inactive); with DU-145 it was 57.5 µM (inactive); in the assay with NCI-H23, 45.2 µM (inactive); in the assay on NCI-H226, 36.6 µM (inactive); in the assay with HCT-116, 16.4 µM (inactive); in the assay with K562 it was 32.4 µM (inactive). For the same molecule, the GI50 with RXF 393 was 21 µM (inactive); with BT-549, 37.2 µM (inactive); in the assay with PC-3, 35.5 µM (inactive); with SK-MEL-5, > 100 µM (inactive); in the assay with CCRF-CEM it was 12.5 µM (inactive); with NCI/ADR-RES, 33.8 µM (inactive). Besides, the GI50 with UO-31 and in the assay with A549 was > 100 µM (inactive) throughout.
Turning to `CCCCCCC(C)c1ccc2c(c1)C(=O)c1nc3ccncc3c(=O)n1-2` (stereo not given), the GI50 with OVCAR-4 was 1.66 µM (inactive); in the assay on OVCAR-3, 1.45 µM (inactive); with HCT-15 it was 1.3 µM; with U-251 it was 4.26 µM (inactive); in the assay with HOP-62, 5.13 µM (inactive); in the assay with NCI-H522 it was 1.29 µM (inactive). Also, the GI50 with ACHN was 3.33 µM (inactive); with DU-145, 14.6 µM (inactive); in the assay with NCI-H23 it was 2.14 µM (inactive); in the assay with NCI-H226, 4.16 µM (inactive); with HCT-116, 2.5 µM (inactive); with K562, 0.419 µM (active). For the same molecule, the GI50 is 4.06 µM (inactive) with RXF 393; 4.21 µM (inactive) with BT-549; 3.54 µM (inactive) in the assay on PC-3; 1.42 µM (inactive) in the assay with SK-MEL-5; 0.836 µM (active) with CCRF-CEM; 5.68 µM (inactive) in the assay on NCI/ADR-RES. Moreover, the GI50 in the assay with UO-31 is 2.17 µM (inactive); in the assay with A549 it was 5.65 µM (inactive).
As for `COC(=O)CC[C@@H](C)[C@H]1CC[C@H]2[C@@H]3CC[C@@H]4C[C@H](O)CC[C@]4(C)[C@H]3CC[C@]12C`, the GI50 in the assay with OVCAR-4 is 19 µM (inactive); in the assay with OVCAR-3 it was 18.1 µM (inactive); with HCT-15, 17.1 µM; in the assay on U-251 it was 20.7 µM (inactive); with HOP-62, 18.4 µM (inactive); with NCI-H522 it was 18.3 µM (inactive). For the same molecule, the GI50 with ACHN was 20.7 µM (inactive); in the assay on DU-145, 17.7 µM (inactive); with NCI-H23, 16.5 µM (inactive); in the assay on NCI-H226 it was 20.3 µM (inactive); with HCT-116, 17.1 µM (inactive); in the assay on K562 it was 10.7 µM (inactive). In addition, the GI50 is 18.2 µM (inactive) in the assay on RXF 393; 16.2 µM (inactive) with BT-549; 17.3 µM (inactive) with PC-3; 16.9 µM (inactive) with SK-MEL-5; 18.2 µM (inactive) in the assay on CCRF-CEM; 19 µM (inactive) with NCI/ADR-RES. Further, the results for the GI50 in the assay with UO-31 and with A549 were 19 µM (inactive) and 18.5 µM (inactive), respectively.
With `CCN(CC)CCNc1ccc(/N=N/c2ccc(S(N)(=O)=O)cc2)c2ccccc12`, the GI50 in the assay on OVCAR-4 was 12.9 µM (inactive); in the assay with OVCAR-3, 2.43 µM (inactive); with HCT-15, 4.52 µM; in the assay with U-251, 4.61 µM (inactive); with HOP-62, 6.73 µM (inactive); in the assay with NCI-H522, 14.9 µM (inactive). The GI50 in the assay with ACHN was 13 µM (inactive); with DU-145, 12 µM (inactive); in the assay with NCI-H23 it was 23.2 µM (inactive); in the assay with NCI-H226 it was 23.6 µM (inactive); in the assay on HCT-116, 3.72 µM (inactive); with K562 it was 3.13 µM (inactive). Also, the GI50 is 3.61 µM (inactive) in the assay on RXF 393; 13.6 µM (inactive) in the assay on BT-549; 6.93 µM (inactive) in the assay with PC-3; 5.06 µM (inactive) in the assay with SK-MEL-5; 4.51 µM (inactive) in the assay on CCRF-CEM; 24.2 µM (inactive) with NCI/ADR-RES. Also, the values for the GI50 in the assay on UO-31 and with A549 were 5.56 µM (inactive) and 4.99 µM (inactive), respectively.
